# Values quoted from earlier work in patent publication US7262212B2, “2,3-dihydro-6-nitroimidazo[2,1-b]oxazoles” (Otsuka Pharmaceutical Co., Ltd., priority 2002, dated 2007).
# Test system: multi-drug-resistant Mycobacterium tuberculosis
# Settings: multi-drug-resistant strain; cited from earlier work
structure (smiles),measurement,value
CCC1Cn2cc([N+](=O)[O-])nc2O1 (stereo not shown) [CGI-17341],bactericidal action,has a bactericidal action
